≈ marks a conversion by molar mass, not a printed value. Like-named read-outs stand apart in the source and are kept apart here. Numbered stars: 1 amine (or outer) side, 2 acyl side, 3 side chain; on linkers, the order of the positions; unused ones are H or OH. Bridge positions count the residues as written; N and C are the ends. Square brackets hold non-standard residues; d marks the D form. Peptide text beside a SMILES is read from it. * marks the point of attachment. Piperazine(2S-CO,4-Me) = CN1CCN[C@H](C(=O)O)C1; NH(1,3-benzodioxol-5-yl) = c1cc2c(cc1N*)OCO2; Morpholine(3S-CO) = O=C(O)[C@@H]1COCCN1; Phe(3-Me) = Cc1cccc(C[C@H](N)C(=O)O)c1; NH(4-Cl-2-F-phenyl) = Fc1cc(Cl)ccc1N*; Pro(4R-Me) = C[C@H]1CN[C@H](C(=O)O)C1; X1 = O=C([C@@H]1CSCCN1[*:1])[*:2]; Hyp = O=C(O)[C@@H]1C[C@@H](O)CN1; NH(4-Et-phenyl) = CCc1ccc(N*)cc1; NH(4-Me-phenyl) = Cc1ccc(N*)cc1; aThr = C[C@H](O)[C@H](N)C(=O)O; CO = O=C([*:1])[*:2]
Tests used:
Plasma pharmacokinetics = assay type: in vivo, male BALB/c mice; settings: for Vd: read-out: Vss
[1] = Microsomal metabolic stability; assay type: in vitro ADME, mouse
Method: Compounds were initially prepared by dissolving them into DMSO at a final concentration of 10 mM. NADPH regenerating solutions A and B and mouse liver microsomes (CD-1) were obtained from BD Gentest (Woburn, Mass.). Ninety-six well deep well plates were obtained from MidWest Scientific Inc (Valley Park, Mo.).
Sample preparation for microsomal stability was modified from methods of Di, L., et al., Int J Pharm. 2005 Jun. 13; 297(1-2):110-9. A set of incubation times of 0, 15, 30, 60, 120, and 240 minutes were used. Mouse liver microsomal solutions were prepared by adding 58 μL of concentrated human or mouse liver microsomes (20 mg/mL protein concentration) to 1.756 mL of 0.1 M potassium phosphate buffer (pH 7.4) and 5 μL of 0.5 M EDTA to make a 0.6381 mg/mL (protein) microsomal solution. NADPH regenerating agent contained 113 μL of NADPH A, 23 μL of NADPH B, and 315 μL of 0.1 M potassium phosphate buffer (pH 7.4). The diluted test compound solutions (2 μL) were each added directly to a 1.79 mL of liver microsomal solution. This solution was mixed and 90 μL was transferred to 6 time points plates (each in triplicate wells). For the time 0 plate, 225 μL of cold acetonitrile with internal standard ([…] warfarin) was added to each well, followed by addition of NADPH regenerating agent (22.5 μL) and no incubation. For other five time points' plate, NADPH regenerating agent (22.5 μL) was added to each well to initiate the reaction. The plates were incubated at 37° C. for the required time, followed by quenching of the reaction by adding 225 μL of cold acetonitrile with internal standard (4 μg/ml warfarin). All of the plates were sealed and mixed well at 600 rpm for 10 minutes followed by centrifugation at 4000 rpm for 20 minutes. The supernatants (120 μL) were transferred to analytical plates for analysis by LCMS. LCMS conditions were described in the materials and instrumentation section above. The metabolic stability is evaluated via the half-life from least-squares fit of the multiple time points based on first-order kinetics.

Plasma stability assay = assay type: in vitro ADME, human
Method: The plasma stability property of early drug discovery compounds can influence the in vivo efficacy of the test compounds/drugs. Human and/or mouse plasma degradation is determined using multiple time points to monitor the rate of disappearance of the parent compound during incubation.
Sample preparation for plasma stability was modified from Di et al. (2005) Int. J. Pharm. 297(1-2): 110-119. A set of incubation times of 0, 3, 24, and 48 hour were used. DMSO stock solutions of test compounds were prepared at 10 mM concentration. 1.8 μL of each test compound was each added directly to 1.8 mL of human/mouse plasma to get the final concentration of 10 μM. This compound/matrix was mixed and 70 μL was transferred to 8 time points plates (each in triplicate wells). For the Time 0 plate, 210 μL of cold acetonitrile with internal standard (4 μg/mL warfarin) was added to each well and no incubation needed. For other seven time points' plate, the plate was incubated at 37° C. for required time, followed by quenching of the reaction by adding 210 μL of cold acetonitrile with internal standard (4 μg/ml warfarin) to each well. All of the plates were sealed and mixed well at 600 rpm for 10 min and were centrifuged at 4000 rpm for 20 min. The supernatants (120 μL) were transferred to analytical plates for analysis by LCMS. Conditions for Waters ACQUITY-UPLC-MS-UV system was described separately. The plasma stability was evaluated via the half-life from least-squares fit of the multiple time points based on first-order kinetics.

S. pneumoniae = assay: Minimal inhibitory concentration, microbroth dilution; assay type: cell-based; settings: Streptococcus pneumoniae; MIC; read-out: Minimal Inhibitory Concentrations (μM) S. pneumoniae
Outline: (§1)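 Following CLSI M7-A7 microbroth dilution, twofold serial dilutions of compound (top final concentration 200 μM) were combined with an equal volume of broth inoculum at about 10^5 cfu/mL. Plates were incubated aerobically at 37 °C overnight, and the MIC was the lowest concentration preventing visible growth.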

S. pyogenes = assay: as above; assay type: cell-based; settings: Streptococcus pyogenes; MIC; read-out: Minimal Inhibitory Concentrations (μM) S. pyogenes
Outline: as §1

[2] = male, BALB/c, mouse, in vivo, iv, 10 mg/kg, Route i.v.
[3] = male, BALB/c, mouse, in vivo, iv

Compound	C^0 (Plasma pharmacokinetics; Route i.v.) [ng/mL]	AUC(0-inf) (Plasma pharmacokinetics; male, BALB/c, mouse, in vivo, iv, 10 mg/kg, Route i.v., read-out: AUCinf) [ng·h/mL]	AUC(0-t) (Plasma pharmacokinetics; male, BALB/c, mouse, in vivo, iv, 10 mg/kg, Route i.v., read-out: AUClast) [ng·h/mL]	clearance (Plasma pharmacokinetics; male, BALB/c, mouse, in vivo, iv, 10 mg/kg, Route i.v., read-out: CL) [mL/min/kg]	half-life (Plasma pharmacokinetics; male, BALB/c, mouse, in vivo, iv, 10 mg/kg, Route i.v., read-out: T1/2 (converted)) [h]	Vd (Plasma pharmacokinetics; [2]) [L/kg]	Mouse ([1]; microsomal metabolic stability half-life, mouse liver microsomes)	Human (Plasma stability assay; plasma stability half-life, human plasma, 37° C.) [h]	AUC(0-inf) (Plasma pharmacokinetics; [3]) [ng·h/mL]	AUC(0-t) (Plasma pharmacokinetics; [3]) [ng·h/mL]	C^0 (Plasma pharmacokinetics; [3]) [ng/mL]	clearance (Plasma pharmacokinetics; [3]) [mL/min/kg]	half-life (Plasma pharmacokinetics; [3]) [h]	Mouse ([1]; CD-1, mouse, pH 7.4)	Human (Plasma stability assay; human, 10 μM) [h]	MIC (S. pneumoniae) [µM]	MIC (S. pyogenes) [µM]
Cc1ccc(NC(=O)N[C@@H](Cc2cccc(C)c2)C(=O)N[C@@H]2C(=O)N3C[C@H](O)C[C@H]3C(=O)N3CCN(C)C[C@H]3C(=O)N[C@@H](C)C(=O)N3C[C@H](C)C[C@H]3C(=O)O[C@H]2C)cc1 [Compound 30, (S)—N-((6AS,8R,12S,13S,15AS,17R,21S,23AS)-8-HYDROXY-2,13,17,21-TETRAMETHYL-6,11,15,20,23-PENTAOXOOCTADECAHYDRO-2H,6H,11H,15H-PYRAZINO[2,1-I]DIPYRROLO[2,1-C:2′,1′-L][1]OXA[4,7,10,13]TETRAAZACYCLOHEXADECIN-12-YL)-3-(M-TOLYL)-2-(3-(P-TOLYL)UREIDO)PROPANAMIDE] ({NH(4-Me-phenyl)-CO}-[Phe(3-Me)][aThr][Hyp][Piperazine(2S-CO,4-Me)]A[Pro(4R-Me)]; ester 2-C)	12355.62	2650	2620	63	2.08	1.74	6.21 ± .215 h	>50									
Cc1cccc(C[C@H](NC(=O)Nc2ccc(Cl)cc2F)C(=O)N[C@@H]2C(=O)N3CCC[C@H]3C(=O)N3CCSC[C@H]3C(=O)N[C@@H](C)C(=O)N3C[C@H](C)C[C@H]3C(=O)O[C@H]2C)c1 [Compound 38, (S)-2-(3-(4-CHLORO-2-FLUOROPHENYL)UREIDO)-3-(M-TOLYL)-N-((6AS,12S,13S,15AS,17R,21S,23AR)-13,17,21-TRIMETHYL-6,11,15,20,23-PENTAOXOOCTADECAHYDRO-6H,11H,15H-DIPYRROLO[2,1-C:2′,1′-L][1,4]THIAZINO[3,4-I][1]OXA[4,7,10,13]TETRAAZACYCLOHEXADECIN-12-YL)PROPANAMIDE] ({NH(4-Cl-2-F-phenyl)-CO}-[Phe(3-Me)][aThr]P[X1]A[Pro(4R-Me)]; ester 2-C)						1.77			13300	13200	16999.46	12.6	3.11	1.25 ± .253 h	>50		
Cc1cccc(C[C@H](NC(=O)Nc2ccc3c(c2)OCO3)C(=O)N[C@H]2COC(=O)[C@@H]3C[C@@H](C)CN3C(=O)[C@H](C)NC(=O)[C@@H]3CN(C)CCN3C(=O)[C@@H]3CCCN3C2=O)c1 [Compound 17, (S)-2-(3-(BENZO[D][1,3]DIOXOL-5-YL)UREIDO)-3-(M-TOLYL)-N-((6AS,12S,15AS,17R,21S,23AS)-2,17,21-TRIMETHYL-6,11,15,20,23-PENTAOXOOCTADECAHYDRO-2H,6H,11H,15H-PYRAZINO[2,1-I]DIPYRROLO[2,1-C:2′,1′-L][1]OXA[4,7,10,13]TETRAAZACYCLOHEXADECIN-12-YL)PROPANAMIDE] ({NH(1,3-benzodioxol-5-yl)-CO}-[Phe(3-Me)]SP[Piperazine(2S-CO,4-Me)]A[Pro(4R-Me)]; ester 2-C)														4.83 ± 0.46 h	51.18 ± 6.0	0.313 (≈ 0.256 µg/mL)	1.25 (≈ 1.02 µg/mL)
CCc1ccc(NC(=O)N[C@@H](Cc2cccc(C)c2)C(=O)N[C@@H]2C(=O)N3C[C@H](O)C[C@H]3C(=O)N3CCOC[C@H]3C(=O)N[C@@H](C)C(=O)N3C[C@H](C)C[C@H]3C(=O)O[C@H]2C)cc1 [Compound 24, (S)-2-(3-(4-ETHYLPHENYL)UREIDO)-N-((6AS,8R,12S,13S,15AS,17R,21S,23AS)-8-HYDROXY-13,17,21-TRIMETHYL-6,11,15,20,23-PENTAOXOOCTADECAHYDRO-6H,11H,15H-[1,4]OXAZINO[3,4-I]DIPYRROLO[2,1-C:2′,1′-L][1]OXA[4,7,10,13]TETRAAZACYCLOHEXADECIN-12-YL)-3-(M-TOLYL)PROPANAMIDE] ({NH(4-Et-phenyl)-CO}-[Phe(3-Me)][aThr][Hyp][Morpholine(3S-CO)]A[Pro(4R-Me)]; ester 2-C)						0.51			3870	3850	27083.47	43	0.34	1.03 ± 0.05 h	90.86		
Cc1cccc(C[C@H](NC(=O)Nc2ccc(Cl)cc2F)C(=O)N[C@@H]2C(=O)N3C[C@H](O)C[C@H]3C(=O)N3CCN(C)C[C@H]3C(=O)N[C@@H](C)C(=O)N3C[C@H](C)C[C@H]3C(=O)O[C@H]2C)c1 [Compound 31, (S)-2-(3-(4-CHLORO-2-FLUOROPHENYL)UREIDO)-N-((6AS,8R,12S,13S,15AS,17R,21S,23AS)-8-HYDROXY-2,13,17,21-TETRAMETHYL-6,11,15,20,23-PENTAOXOOCTADECAHYDRO-2H,6H,11H,15H-PYRAZINO[2,1-I]DIPYRROLO[2,1-C:2′,1′-L][1]OXA[4,7,10,13]TETRAAZACYCLOHEXADECIN-12-YL)-3-(M-TOLYL)PROPANAMIDE] ({NH(4-Cl-2-F-phenyl)-CO}-[Phe(3-Me)][aThr][Hyp][Piperazine(2S-CO,4-Me)]A[Pro(4R-Me)]; ester 2-C)						0.63			5260	5250	30582.19	31.7	1.55	2.65 ± .655 h	>50		
Cc1cccc(C[C@H](NC(=O)Nc2ccc3c(c2)OCO3)C(=O)N[C@H]2COC(=O)[C@@H]3C[C@@H](C)CN3C(=O)[C@H](C)NC(=O)[C@@H]3CCCCN3C(=O)[C@@H]3CCCN3C2=O)c1 [Compound 23, (S)-2-(3-(BENZO[D][1,3]DIOXOL-5-YL)UREIDO)-N-((2R,6S,8AS,14AS,20S,23AS)-2,6-DIMETHYL-5,8,14,19,23-PENTAOXOOCTADECAHYDRO-1H,5H,14H,19H-PYRIDO[2,1-I]DIPYRROLO[2,1-C:2′,1′-L][1]OXA[4,7,10,13]TETRAAZACYCLOHEXADECIN-20-YL)-3-(M-TOLYL)PROPANAMIDE]						2.83			12000	11700	25009.24	13.8	4.57	35.8 ± 14.7 h	>50		
